{
  "source": "patent US12433860B2",
  "about": "“Treatment of multiple sclerosis comprising DHODH inhibitors” (Immunic AG, priority 2021, dated 2025)",
  "origin": "cited, not measured here",
  "system": "patients with active rheumatoid arthritis",
  "conditions": "35 mg once-daily for 13 weeks; cited from earlier work",
  "data": [
    {"smiles": "COc1cccc(-c2ccc(NC(=O)C3=C(C(=O)O)CCC3)c(F)c2)c1", "note": "[vidofludimus, 2-((3-fluoro-3′-methoxy-[1,1′-biphenyl]-4-yl)carbamoyl)cyclopent-1-enecarboxylic acid]", "values": [
      {"measurement": "diarrhoea, alopecia, neutropenia or liver enzyme elevations", "result": "no notable increases"},
      {"measurement": "safety profile as compared to placebo", "result": "overall similar safety profile as compared to placebo"}
    ]}
  ]
}
